For experiment [1], the system named is L. infantum life stage forms (promastigote and amastigote). The following applies: Cortes et al., 2015; cited from earlier work.
The next experiment concerns L. infantum. The experiment can be described thus: Clinical evaluation (clinical score) in open-label randomized comparative clinical field trial of canine leishmaniosis. The format is in vivo, dogs. An excerpt: This was an open-label randomized comparative clinical field trial conducted in the north of Algeria. Prevalence observed in this area was 36%. Client-owned dogs of any age, breed, or gender were enrolled and 11 veterinary practitioners were responsible of the monitoring. All dogs had previously been naturally infected by L. infantum and presented clinical signs. The dogs were fully monitored and treatment could be changed to antimoniate meglumine/allopurinol at the owner's request if clinical impairment was noticed. A total of 187 dogs were enrolled for CanL. Among them, 42 adult sick dogs (30 males and 12 females), 3.8 years average age (min=1, max=11 years), weighing between 3-37 kg and of different breeds (8 german shepherd, 1 belgian shepherd malinois, 2 sloughy, 5 pointers, 6 braques, 1 bagnole, 1 americain staff, 1 beagle and 17 mixed breeds), were selected for this study.
Main inclusion criteria were: i) Dogs with at least two clinical manifestations related to CanL as detailed in the following Table 1) and ii) Dogs with positive serology for Leishmania by the immunochromatographic based qualitative rapid test WITNESS® Leishmania (Zoetis, France) and/or the quantitative indirect immunofluorescence antibody test (IFAT≥ 100) or positive PCR result obtained in blood.
Efficacy criteria were determined by reduction in clinical scores (i.e. the sum of clinical scores was lower than before treatment), in decreasing of parasite DNA and Leishmaniaspecific antibody titers. The score was defined according to the severity of each clinical sign and the final value was obtained from the sum of all the values (Table 1). Quantitative parasite load was estimated through qPCR and the antibody titers through quantitative IFAT. Table 1: Clinical signs related to CanL defined to evaluate the clinical scores of dogs.
Each manifestation was assigned a severity score ranging from 0 to 3, where 0 = none, 1 = mild, 2 = moderate, and 3 = severe (maximum total clinical score = 21). Mortality related to CanL was assessed by the highest score (22).
(§1) Selected dogs were included randomly to one of the two treatment arms. Dogs (N=26) in the Group 1: (positive control) received 100 mg/kg Antimoniate of meglumine (Glucantime®, Merial, France) daily for 28 days subcutaneously, and 30 mg/kg allopurinol (Allopurinol Arraw® 300 mg, France) orally daily for one month. Dogs (N=16) in the Group 2: (chemotherapy of the invention) received 25 mg/kg artesunate (Asu-Denk®; Denk Pharma, Germany) orally for 6 days. […] Dogs were followed up for 180 days (Figure 1).
(§2) Animals were checked on days D0, D+30, D+90 and D+180 after the treatment had started and blood samples were collected each time-points. Clinical signs and lesions associated with leishmaniosis, infection status (parasite load-qPCR and serological) were evaluated and monitored in these points.
The efficacy of treatments was assessed at each time-point based on the clinical response to treatment (evolution of clinical scores over time and the percentage reduction of the total clinical score). For each dog, the same veterinarian conducted all clinical evaluations to maintain consistency. Mortality due to CanL constitutes the higher score (22). The percentage of reduction was calculated according to the formula: Percentage reduction of CS % = (CSatD+XX−CSatD+0)/CS at D + 0) × 100 [formula]

For a further experiment, the system named is L. infantum DNA. Briefly: Parasite load-qPCR in blood (kDNA) in the field trial. The format is in vivo, dogs. More on the design: Parasitemia (% of reduction): concentration or dose not given beside the values. The following applies: for Parasitemia No. Leish/mL of blood / Parasitemia (% of reduction): individual dogs (one table line per dog); for Parasitemia No. Leish/mL of blood: artesunate 25 mg/kg orally 6 days, Glucantime 100 mg/kg s.c. 28 days + allopurinol 30 mg/kg orally one month. As to the method:
as §1, §2
Blood samples collected in each time-point were analyzed for quantification of parasitic load by qPCR using primers and probe for detection and quantification of L. infantum DNA, targeting a conserved region of the kinetoplast minicircle DNA (kDNA) (several 1000's-fold repeated sequence). Prior to DNA extraction, 200 µL of blood were digested with proteinase K and incubated at +56°C overnight. Extraction was performed using a commercial DNA extraction kit (QIAamp DNA Mini Kit®, [Qiagen, Courtaboeuf, France]) and performed on BIOROBOT EZ1 (Qiagen, Qiagen, Courtaboeuf, France) per the manufacturer's instructions. DNA was eluted in 200 µl of distilled water and stored at -20°C until analysis. qPCR was prepared and performed as follows: 20 µL final volume containing 10 µL of Eurogentec Master Mix Roche (Eurogentec, Liège, Belgium), […] of each primer and the probe, 0.5 µL UDG, 3 µL of distilled water DNAse and RNAse free, and 5 µl of the DNA sample, was amplified in a CFX96 Real-Time system (BioRad Laboratories, Foster City, CA, USA) using the following thermal profile: one incubation step at 50°C for two minutes and an initial denaturation step at 95°C for three minutes, followed by 40 cycles of denaturation at 95°C for 15 seconds and annealing extension at 60°C for 30 seconds. Quantification was based on a standard curve which was 8 folds-serial dilution of plasmid of 10^8 copy of DNA/mL from the kDNA region, equivalent of 10000 parasites/mL; 5 µl of serial dilutions ranging from 10000 to 0.001 parasites/mL, was introduced into reaction tubes. Results were expressed as the number of Leishmania parasites present in 1 ml of blood, taking in account the volume (200 µl of blood) and the elution (200 µl) introduced during the extraction process.
In general terms: Real-time PCR tracks product formation cycle by cycle.

For experiment [2], the system named is anti-L. infantum specific immunoglobulins G (IgG). The experiment can be described thus: Serological monitoring by quantitative IFAT in the field trial. The format is in vivo, dogs. The following applies: for Leishmania-antibody titers (mean ± SD), IFAT: artesunate 25 mg/kg orally 6 days, Glucantime 100 mg/kg s.c. 28 days + allopurinol 30 mg/kg orally one month. As to the method:
as §1, §2
At day 0, the immunochromatographic based qualitative rapid test WITNESS® Leishmania (Zoetis, France) was performed according to the manufacturer's instructions using one drop (10 µL) of whole blood from each dog directly after sampling. Quantitative IFAT for the titration of anti-L. infantum specific immunoglobulins G (IgG) was performed on sera for the monitoring as described previously. Briefly, plate wells were sensitized by 20 µL of L. infantum commercial antigens (Zoetis, France). After dilution to 1:50, 20 µl of every serum dilution was applied per well and plates were incubated for 30 min at 37 °C. Plates were washed twice with PBS for 5 min and once with distilled water. 20 µL of IgG anti-dog conjugated with fluorescein isothiacyanate (FITC) (Sigma-Aldrich, St Louis, MO, USA) were added into each well. The plates were incubated for 30 min at 37 °C in the dark. After another washing step, some drops of mounting medium were added on the cover slips and reading was performed. To avoid errors of observation, all samples were examined by two different investigators and positive and negative controls were added in each plate. All samples negative at 1:50 were considered negative. Positive results were further investigated using a […] serial dilution IFAT at 1:100 to 1:1600. At this point, the samples were classified as a high positive for L. infantum (> 1:1600).

Where [3] appears, read: D+30, artesunate 25 mg/kg orally 6 days (n=15), Glucantime 100 mg/kg s.c. 28 days + allopurinol 30 mg/kg orally one month (n=26).
[4] abbreviates: D+30, mortality related to CanL included, artesunate 25 mg/kg orally 6 days (n=15), Glucantime 100 mg/kg s.c. 28 days + allopurinol 30 mg/kg orally one month (n=26).
[5] abbreviates: D+90, artesunate 25 mg/kg orally 6 days (n=15), Glucantime 100 mg/kg s.c. 28 days + allopurinol 30 mg/kg orally one month (n=23).
Setting [6] is: D+90, mortality related to CanL included, artesunate 25 mg/kg orally 6 days (n=15), Glucantime 100 mg/kg s.c. 28 days + allopurinol 30 mg/kg orally one month (n=23).
Setting [7] is: D+180, artesunate 25 mg/kg orally 6 days (n=15), Glucantime 100 mg/kg s.c. 28 days + allopurinol 30 mg/kg orally one month (n=22).
[8] abbreviates: D+180, mortality related to CanL included, artesunate 25 mg/kg orally 6 days (n=15), Glucantime 100 mg/kg s.c. 28 days + allopurinol 30 mg/kg orally one month (n=22).

Results on three compounds are retold here after patent publication EP4178570B1, “VETERINARY COMPOSITIONS FOR PREVENTING AND/OR TREATING LEISHMANIOSIS” (priority 2020, dated 2022).

Values joined by “and” are separate entries in the source; they are usually repeats but may differ in a detail not shown here. Equal entries are not always repeated.

As for `CC1CCC2C(C)C(OC(=O)CCC(=O)O)OC3OC4(C)CCC1C32O4` (centres unmarked) [deoxygenated artesunate], the “in vitro activity against L. infantum life stage forms (promastigote and amastigote)” value in experiment [1] is “in vitro activity”.
As for `CC1CCC2C(C)C(O)OC3OC4(C)CCC1C32O4` (centres unmarked) [deoxygenated dihydroartemisinin], the “in vitro activity against L. infantum life stage forms (promastigote and amastigote)” value in experiment [1] is reported as “in vitro activity”.
Take `C[C@H]1[C@H](OC(=O)CCC(=O)O)O[C@@H]2O[C@@]3(C)CC[C@H]4[C@H](C)CC[C@@H]1[C@@]24OO3` [Artesunate]: in the experiment on L. infantum (D+30, D+90 and D+180, p<0.0001 (Mann-Whitney)), the “mean percentage of reduction of clinical score, comparison between the two groups” value is recorded as “More improvement”. Moreover, the “PARTIAL AMELIORATION (%)” value with L. infantum (setting [3]) was found to be 80%; with L. infantum (setting [5]), 53.33%; with L. infantum (D+180 (6 months following up), artesunate 25 mg/kg orally 6 days (n=15), Glucantime 100 mg/kg s.c. 28 days + allopurinol 30 mg/kg orally one month (n=22)), 46.66%. For the same compound, the “PARTIAL AMELIORATION, number of dogs” value with L. infantum (setting [3]) amounted to 12; with L. infantum (setting [5]) it was 8; in the experiment on L. infantum (setting [7]), 7. Also, the “AGGRAVATION (%)” value in the experiment on L. infantum (setting [4]) and with L. infantum (setting [6]) was 20% in each case. The results for the “AGGRAVATION, number of dogs” value in the experiment with L. infantum (setting [4]), in the experiment on L. infantum (setting [6]) and with L. infantum (setting [8]) were 3, 3 and 4, respectively. In addition, the “COMPLETE AMELIORATION (%)” value with L. infantum (setting [5]) was 20%. Further, the “COMPLETE AMELIORATION, number of dogs” value with L. infantum (setting [5]) came to 3; with L. infantum (setting [7]) it was 4. Besides, the “NO CHANGE (%)” value in the experiment with L. infantum (setting [5]) amounted to 6.66%. The “NO CHANGE, number of dogs” value in the experiment on L. infantum (setting [5]) worked out at 1. The “COMPLETE AMELIORATION (%) (complete recovery, CS of 0)” value in the experiment with L. infantum (setting [7]) is “approximately 26.66%”; with L. infantum (D+180, artesunate 25 mg/kg orally 6 days (n=15), Glucantime 100 mg/kg s.c. 28 days + allopurinol 30 mg/kg orally one month (n=22), listed as ARTESUNATE) it was 26.66%. Also, the “AGGRAVATION (%) (clinical aggravation rates)” value with L. infantum (setting [8]) was found to be 26.66%. In addition, the mortality in the experiment with L. infantum (D+180, part of the aggravation rate, artesunate 2/15, control group 4/22) is recorded as 13.33%. Further, in the experiment on L. infantum (between D+60 after the beginning of treatments and the visit D+90), the “dogs died with increasing in the clinical signs related to CanL” value was “two”. For the same compound, the “Parasitemia No. Leish/mL of blood” value is 0 No. Leish/mL of blood and 14 No. Leish/mL of blood and 44 No. Leish/mL of blood and 1,7 No. Leish/mL of blood and 0,17 No. Leish/mL of blood in the experiment on L. infantum DNA (D+30); 0 No. Leish/mL of blood (3×) and 29 No. Leish/mL of blood in the experiment on L. infantum DNA (D+ 90); 0 No. Leish/mL of blood in the experiment on L. infantum DNA (D+ 180). In addition, the “Parasitemia (% of reduction)” value with L. infantum DNA (D+30 versus D0) was 100% and 19,54% and 63,93% and 99,27% and 98,45%; with L. infantum DNA (D+ 90 versus D0) it was 100% (3×) and -66,67%; in the experiment on L. infantum DNA (D+ 180 versus D0), 100%. Moreover, in the experiment with L. infantum DNA (qPCR in blood, over-time after treatment, dogs negative / dogs positive at D0), the “initially PCR-positive dogs that turned out to be Leishmania-negative” value is reported as 5/5. Moreover, the “Leishmania-antibody titers (mean ± SD), IFAT” value in experiment [2] (D+30) was 128.57 ± 212.78; in experiment [2] (D+ 180), 37.50 ± 60.77. In addition, the “dogs that became seronegative” value in experiment [2] (D+ 30, artesunate 7/14, Glucantime/allopurinol 4/26) turned out to be 50%. The “dogs with diminution in antibody titers” value in experiment [2] (D+ 30, artesunate 11/14, Glucantime/allopurinol 15/26) came out at 78.57%. In addition, the dogs turned seronegative in experiment [2] (end of the follow-up, Group 1 5/17, Group 2 7/12, P-Value 0.227) came out at 58.33%. Also, the “percentage of reduction in antibody titers, comparison of groups” value in experiment [2] (end of the study, P <0.0001) is given as “higher percentage of reduction”. The “in vitro activity against L. infantum life stage forms (promastigote and amastigote)” value in experiment [1] is recorded as “in vitro activity”.

In general, mortality refers to the share of the test organisms that died.
